Measurements reported in US9504669B2, “Spliceostatin analogs and methods for their preparation” (PFIZER INC., priority 2012, dated 2016).
Structures can show the parent of a compound that is named as a salt.

Assays:
Assay type in all cases: cell-based
Conditions in all cases: free compounds (natural products and synthetic analogs), cell viability 96 hours after treatment
[1] = tested on: N87 (gastric cancer) cells; experiment: In vitro cell assay (MTS cell viability), N87
Description: (§1) Target expressing (BT474 (breast cancer), N87 (gastric cancer), HCC1954 (breast cancer), MDA-MB-361-DYT2 (breast cancer)) or non-expressing (MDA-MB-468) cells were seeded in 96-well cell culture plates for 24 hours before treatment. Cells were treated with 3-fold serially diluted antibody-drug conjugates or free compounds (i.e., no antibody conjugated to the drug) in duplicate at 10 concentrations. Cell viability was determined by CellTiter 96® AQueous One Solution Cell Proliferation MTS Assay (Promega, Madison Wis.) 96 hours after treatment. Relative cell viability was determined as percentage of untreated control. IC50 values were calculated using a four parameter logistic model #203 with XLfit v4.2 (IDBS, Guildford, Surry, UK). The potency ranged upward from 0.0002 nm. Similar procedures and techniques were employed.

[2] = tested on: BT474 (breast cancer) cells; experiment: In vitro cell assay (MTS cell viability), BT474
Description: as §1

[3] = tested on: MDA-MB-361-DYT2 (breast cancer) cells; experiment: In vitro cell assay (MTS cell viability), MDA-MB-361-DYT2
Description: as §1

Row | SMILES | IC50 [1] | IC50 [2] | IC50 [3] | IC50 ([1]; 96 h) | IC50 ([2]; Homo sapiens, BT-474) | IC50 ([3]; 96 h)
1 | CC(=O)O[C@@H](C)/C=C\C(=O)N[C@@H]1C[C@H](C)[C@H](C/C=C(C)/C=C/[C@H]2O[C@H](CC(=O)N[C@H]3CC[C@H](N(C)C)CC3)C[C@@]3(CO3)[C@@H]2O)O[C@@H]1C (relative stereo) [#B86, (2S,3Z)-5-{[(2R,3R,5S,6S)-6-{(2E,4E)-5-[(3R,4R,5R,7S)-7-(2-{[trans-4-(dimethylamino)cyclohexyl]amino}-2-oxoethyl)-4-hydroxy-1,6-dioxaspiro[2.5]oct-5-yl]-3-methylpenta-2,4-dien-1-yl}-2,5-dimethyltetrahydro-2H-pyran-3-yl]amino}-5-oxopent-3-en-2-yl acetate] | 14 nM | 20.1 nM | 73.3 nM | – | – | –
2 | CC(=O)O[C@@H](C)/C=C\C(=O)N[C@@H]1C[C@H](C)[C@H](C/C=C(C)/C=C/[C@@H]2C[C@]3(CO3)C[C@@H](CC(=O)N[C@H]3CC[C@H](N(C)C)CC3)O2)O[C@@H]1C (relative stereo) [#B87, (2S,3Z)-5-{[(2R,3R,5S,6S)-6-{(2E,4E)-5-[(3S,5S,7S)-7-(2-{[trans-4-(dimethylamino)cyclohexyl]amino}-2-oxoethyl)-1,6-dioxaspiro[2.5]oct-5-yl]-3-methylpenta-2,4-dien-1-yl}-2,5-dimethyltetrahydro-2H-pyran-3-yl]amino}-5-oxopent-3-en-2-yl acetate] | 0.744 nM | 1.21 nM | 3.47 nM | – | – | –
3 | CC(=O)O[C@@H](C)/C=C\C(=O)N[C@@H]1C[C@H](C)[C@H](C/C=C(C)/C=C/[C@@H]2C[C@]3(CO3)C[C@@H](CC(=O)N[C@H]3CC[C@@H](N(C)C)CC3)O2)O[C@@H]1C (relative stereo) [#B90, (2S,3Z)-5-{[(2R,3R,5S,6S)-6-{(2E,4E)-5-[(3S,5S,7S)-7-(2-{[cis-4-(dimethylamino)cyclohexyl]amino}-2-oxoethyl)-1,6-dioxaspiro[2.5]oct-5-yl]-3-methylpenta-2,4-dien-1-yl}-2,5-dimethyltetrahydro-2H-pyran-3-yl]amino}-5-oxopent-3-en-2-yl acetate] | 0.87 nM | 1.26 nM | 3.9 nM | – | – | –
4 | CC(=O)O[C@@H](C)/C=C\C(=O)N[C@@H]1C[C@H](C)[C@H](C/C=C(C)/C=C/[C@@H]2C[C@]3(CO3)C[C@@H](CC(=O)NN)O2)O[C@@H]1C [#B7, (2S,3Z)-5-{[(2R,3R,5S,6S)-6-{(2E,4E)-5-[(3S,5S,7S)-7-(2-hydrazinyl-2-oxoethyl)-1,6-dioxaspiro[2.5]oct-5-yl]-3-methylpenta-2,4-dien-1-yl}-2,5-dimethyltetrahydro-2H-pyran-3-yl]amino}-5-oxopent-3-en-2-yl acetate] | – | – | – | 0.344 nM | 1.12 nM | 1.88 nM
5 | CC(=O)O[C@@H](C)/C=C\C(=O)N[C@@H]1C[C@H](C)[C@H](C/C=C(C)/C=C/[C@H]2O[C@H](CC(=O)NCCO)C[C@@]3(CO3)[C@@H]2O)O[C@@H]1C [#B8, (2S,3Z)-5-{[(2R,3R,5S,6S)-6-{(2E,4E)-5-[(3R,4R,5R,7S)-4-hydroxy-7-{2-[(2-hydroxyethyl)amino]-2-oxoethyl}-1,6-dioxaspiro[2.5]oct-5-yl]-3-methylpenta-2,4-dien-1-yl}-2,5-dimethyltetrahydro-2H-pyran-3-yl]amino}-5-oxopent-3-en-2-yl acetate] | – | – | – | 10.7 nM | 14.1 nM | 25.5 nM
6 | CC(=O)O[C@@H](C)/C=C\C(=O)N[C@@H]1C[C@H](C)[C@H](C/C=C(C)/C=C/[C@H]2O[C@H](CC(N)=O)C[C@@]3(CO3)[C@@H]2O)O[C@@H]1C [#B9, (2S,3Z)-5-{[(2R,3R,5S,6S)-6-{(2E,4E)-5-[(3R,4R,5R,7S)-7-(2-amino-2-oxoethyl)-4-hydroxy-1,6-dioxaspiro[2.5]oct-5-yl]-3-methylpenta-2,4-dien-1-yl}-2,5-dimethyltetrahydro-2H-pyran-3-yl]amino}-5-oxopent-3-en-2-yl acetate] | – | – | – | 1.34 nM | 3.26 nM | 5.26 nM
7 | CC(=O)O[C@@H](C)/C=C\C(=O)N[C@@H]1C[C@H](C)[C@H](C/C=C(C)/C=C/[C@H]2O[C@H](CC(=O)NCc3ccc(S(N)(=O)=O)cc3)C[C@@]3(CO3)[C@@H]2O)O[C@@H]1C [#B10, (2S,3Z)-5-{[(2R,3R,5S,6S)-6-{(2E,4E)-5-[(3R,4R,5R,7S)-4-hydroxy-7-{2-oxo-2-[(4-sulfamoylbenzyl)amino]ethyl}-1,6-dioxaspiro[2.5]oct-5-yl]-3-methylpenta-2,4-dien-1-yl}-2,5-dimethyltetrahydro-2H-pyran-3-yl]amino}-5-oxopent-3-en-2-yl acetate] | – | – | – | 12.1 nM | 43.5 nM | 77.5 nM
8 | CC(=O)O[C@@H](C)/C=C\C(=O)N[C@@H]1C[C@H](C)[C@H](C/C=C(C)/C=C/[C@H]2O[C@H](CC(=O)NCc3ccc(N)cc3)C[C@@]3(CO3)[C@@H]2O)O[C@@H]1C [#B11, (2S,3Z)-5-{[(2R,3R,5S,6S)-6-{(2E,4E)-5-[(3R,4R,5R,7S)-7-{2-[(4-aminobenzyl)amino]-2-oxoethyl}-4-hydroxy-1,6-dioxaspiro[2.5]oct-5-yl]-3-methylpenta-2,4-dien-1-yl}-2,5-dimethyltetrahydro-2H-pyran-3-yl]amino}-5-oxopent-3-en-2-yl acetate] | – | – | – | 1.61 nM | 3.42 nM | 6.71 nM
9 | CC(=O)O[C@@H](C)/C=C\C(=O)N[C@@H]1C[C@H](C)[C@H](C/C=C(C)/C=C/[C@H]2O[C@H](CC(=O)N3CCNCC3)C[C@@]3(CO3)[C@@H]2O)O[C@@H]1C [#B12, (2S,3Z)-5-({(2R,3R,5S,6S)-6-[(2E,4E)-5-{(3R,4R,5R,7S)-4-hydroxy-7-[2-oxo-2-(piperazin-1-yl)ethyl]-1,6-dioxaspiro[2.5]oct-5-yl}-3-methylpenta-2,4-dien-1-yl]-2,5-dimethyltetrahydro-2H-pyran-3-yl}amino)-5-oxopent-3-en-2-yl acetate, acetate salt] | – | – | – | 54.6 nM | 55.5 nM | 87.8 nM
10 | CC(=O)O[C@@H](C)/C=C\C(=O)N[C@@H]1C[C@H](C)[C@H](C/C=C(C)/C=C/[C@H]2O[C@H](CC(=O)N3CCN(C)CC3)C[C@@]3(CO3)[C@@H]2O)O[C@@H]1C [#B13, (2S,3Z)-5-({(2R,3R,5S,6S)-6-[(2E,4E)-5-{(3R,4R,5R,7S)-4-hydroxy-7-[2-(4-methylpiperazin-1-yl)-2-oxoethyl]-1,6-dioxaspiro[2.5]oct-5-yl}-3-methylpenta-2,4-dien-1-yl]-2,5-dimethyltetrahydro-2H-pyran-3-yl}amino)-5-oxopent-3-en-2-yl acetate, acetate salt] | – | – | – | 0.99 nM | 0.68 nM | 1.93 nM
11 | CC(=O)O[C@@H](C)/C=C\C(=O)N[C@@H]1C[C@H](C)[C@H](C/C=C(C)/C=C/[C@@H]2C[C@]3(CO3)C[C@@H](CC(=O)NO)O2)O[C@@H]1C [#B22, (2S,3Z)-5-({(2R,3R,5S,6S)-6-[(2E,4E)-5-{(3S,5S,7S)-7-[2-(hydroxyamino)-2-oxoethyl]-1,6-dioxaspiro[2.5]oct-5-yl}-3-methylpenta-2,4-dien-1-yl]-2,5-dimethyltetrahydro-2H-pyran-3-yl}amino)-5-oxopent-3-en-2-yl acetate] | – | – | – | 4.23 nM | 1.76 nM | 7.46 nM
